{
  "source": "ChEMBL document CHEMBL5120836",
  "about": "“Discovery of novel 7,8-dihydropteridine-6(5H)-one-based DNA-PK inhibitors as potential anticancer agents via scaffold hopping strategy” (Eur J Med Chem, 2022)",
  "key": {"HL-60 [1]": {"tested_on": "HL-60", "test": "Synergistic antiproliferative activity against human HL-60 cells assessed as combination index at 6.25 uM in presence of 0.1 uM doxorubicin by MTT assay", "format": "functional"}, "HepG2 [2]": {"tested_on": "HepG2", "test": "Synergistic antiproliferative activity against Doxorubicin-resistant human HepG2 cells assessed as combination index at 0.1 uM in presence of 0.1 uM doxorubicin by MTT assay", "format": "functional"}, "MDA-MB-231 [3]": {"tested_on": "MDA-MB-231", "test": "Synergistic antiproliferative activity against human MDA-MB-231 cells assessed as combination index at 3.1 uM in presence of 0.1 uM doxorubicin by MTT assay", "format": "functional"}, "HCT-116 [4]": {"tested_on": "HCT-116", "test": "Induction of apoptosis in human HCT-116 cells assessed as necrotic cells at 1 uM incubated for 24 hrs by AnnexinV-FITC/PI staining based flow cytometry (reference value: 0.031%)", "format": "functional"}, "HepG2 [5]": {"tested_on": "HepG2", "test": "Synergistic antiproliferative activity against Doxorubicin-resistant human HepG2 cells assessed as combination index at 12.5 uM in presence of 0.1 uM doxorubicin by MTT assay", "format": "functional"}, "HepG2 [6]": {"tested_on": "HepG2", "test": "Synergistic antiproliferative activity against Doxorubicin-resistant human HepG2 cells assessed as combination index at 25 uM in presence of 0.1 uM doxorubicin by MTT assay", "format": "functional"}, "[7]": {"biological_target": "Phosphatidylinositol 4,5-bisphosphate 3-kinase catalytic subunit gamma isoform (Homo sapiens, UniProt P48736)", "sequence (P48736 whole entry, canonical isoform)": "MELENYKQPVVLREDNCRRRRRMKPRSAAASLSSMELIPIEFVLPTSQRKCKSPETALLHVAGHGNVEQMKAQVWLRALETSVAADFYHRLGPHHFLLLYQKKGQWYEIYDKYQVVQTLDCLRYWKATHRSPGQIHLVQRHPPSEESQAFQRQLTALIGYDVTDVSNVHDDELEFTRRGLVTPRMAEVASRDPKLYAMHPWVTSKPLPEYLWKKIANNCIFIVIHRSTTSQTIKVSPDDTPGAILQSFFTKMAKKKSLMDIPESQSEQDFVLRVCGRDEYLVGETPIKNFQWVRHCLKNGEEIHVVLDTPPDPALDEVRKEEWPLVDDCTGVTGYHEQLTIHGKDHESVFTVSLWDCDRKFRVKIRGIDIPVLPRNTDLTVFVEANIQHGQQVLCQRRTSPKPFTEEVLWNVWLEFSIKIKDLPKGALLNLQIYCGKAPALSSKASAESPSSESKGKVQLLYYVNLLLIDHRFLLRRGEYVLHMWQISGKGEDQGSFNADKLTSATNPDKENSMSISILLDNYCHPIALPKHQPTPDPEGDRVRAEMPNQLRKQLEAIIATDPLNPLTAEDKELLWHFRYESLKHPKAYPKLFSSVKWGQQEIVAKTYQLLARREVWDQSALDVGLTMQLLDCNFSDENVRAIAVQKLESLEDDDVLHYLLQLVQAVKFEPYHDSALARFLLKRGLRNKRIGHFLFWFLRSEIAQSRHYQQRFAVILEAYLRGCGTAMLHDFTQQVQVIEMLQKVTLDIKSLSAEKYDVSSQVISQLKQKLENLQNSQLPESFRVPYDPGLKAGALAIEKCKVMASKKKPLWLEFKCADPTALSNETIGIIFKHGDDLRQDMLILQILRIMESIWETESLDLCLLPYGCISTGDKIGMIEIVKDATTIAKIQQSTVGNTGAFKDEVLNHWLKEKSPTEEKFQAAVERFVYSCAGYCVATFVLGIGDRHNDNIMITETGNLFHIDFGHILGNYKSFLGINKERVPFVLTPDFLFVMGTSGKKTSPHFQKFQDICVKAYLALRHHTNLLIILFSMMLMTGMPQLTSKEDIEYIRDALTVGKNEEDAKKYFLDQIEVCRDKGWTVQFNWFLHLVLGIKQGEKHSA", "test": "Inhibition of human PI3Kgamma by ADP-Glo assay", "format": "toxicity"}, "[8]": {"test": "Toxicity in BALB/c nude mouse xenografted with human HL-60 cells assessed as heart morphological alterations at 100 mg/kg, po qd for 16 days by Hematoxylin and Eosin staining based analysis", "format": "organism-based", "conditions": "in vivo, 384 h, time 16 day"}, "MCF7 [9]": {"tested_on": "MCF7", "test": "Synergistic antiproliferative activity against human MCF7 cells assessed as combination index at 100 uM in presence of 0.1 uM doxorubicin by MTT assay", "format": "functional"}, "MCF7 [10]": {"tested_on": "MCF7", "test": "Synergistic antiproliferative activity against human MCF7 cells assessed as combination index at 50 uM in presence of 0.1 uM doxorubicin by MTT assay", "format": "functional"}, "[11]": {"test": "Toxicity in BALB/c nude mouse xenografted with human HL-60 cells assessed as platelets level at 100 mg/kg, po qd for 16 days (reference value: 738.5X10^9/L)", "format": "organism-based", "conditions": "in vivo, 384 h, time 16 day"}, "HL-60 [12]": {"tested_on": "HL-60", "test": "Synergistic antiproliferative activity against human HL-60 cells assessed as combination index at 100 uM in presence of 0.1 uM doxorubicin by MTT assay", "format": "functional"}, "MCF7 [13]": {"tested_on": "MCF7", "test": "Synergistic antiproliferative activity against human MCF7 cells assessed as combination index at 3.1 uM in presence of 0.1 uM doxorubicin by MTT assay", "format": "functional"}, "HCT-116 [14]": {"tested_on": "HCT-116", "test": "Synergistic antiproliferative activity against human HCT-116 cells assessed as combination index at 1 uM in presence of 100 nM doxorubicin by MTT assay", "format": "functional"}, "[15]": {"test": "Toxicity in BALB/c nude mouse xenografted with human HL-60 cells assessed as serum granulocytes content at 100 mg/kg, po qd for 16 days (reference value: 0.51X10^9/L)", "format": "organism-based", "conditions": "in vivo, 384 h, time 16 day"}, "HepG2 [16]": {"tested_on": "HepG2", "test": "Synergistic antiproliferative activity against Doxorubicin-resistant human HepG2 cells assessed as combination index at 1 uM in presence of 0.1 uM doxorubicin by MTT assay", "format": "functional"}, "[17]": {"test": "Lipophilicity, logP of the compound", "format": "physicochemical", "conditions": "octanol/water"}, "[18]": {"biological_target": "T1, Phosphatidylinositol 4,5-bisphosphate 3-kinase catalytic subunit delta isoform (Homo sapiens, UniProt O00329)", "T1 sequence (O00329 whole entry)": "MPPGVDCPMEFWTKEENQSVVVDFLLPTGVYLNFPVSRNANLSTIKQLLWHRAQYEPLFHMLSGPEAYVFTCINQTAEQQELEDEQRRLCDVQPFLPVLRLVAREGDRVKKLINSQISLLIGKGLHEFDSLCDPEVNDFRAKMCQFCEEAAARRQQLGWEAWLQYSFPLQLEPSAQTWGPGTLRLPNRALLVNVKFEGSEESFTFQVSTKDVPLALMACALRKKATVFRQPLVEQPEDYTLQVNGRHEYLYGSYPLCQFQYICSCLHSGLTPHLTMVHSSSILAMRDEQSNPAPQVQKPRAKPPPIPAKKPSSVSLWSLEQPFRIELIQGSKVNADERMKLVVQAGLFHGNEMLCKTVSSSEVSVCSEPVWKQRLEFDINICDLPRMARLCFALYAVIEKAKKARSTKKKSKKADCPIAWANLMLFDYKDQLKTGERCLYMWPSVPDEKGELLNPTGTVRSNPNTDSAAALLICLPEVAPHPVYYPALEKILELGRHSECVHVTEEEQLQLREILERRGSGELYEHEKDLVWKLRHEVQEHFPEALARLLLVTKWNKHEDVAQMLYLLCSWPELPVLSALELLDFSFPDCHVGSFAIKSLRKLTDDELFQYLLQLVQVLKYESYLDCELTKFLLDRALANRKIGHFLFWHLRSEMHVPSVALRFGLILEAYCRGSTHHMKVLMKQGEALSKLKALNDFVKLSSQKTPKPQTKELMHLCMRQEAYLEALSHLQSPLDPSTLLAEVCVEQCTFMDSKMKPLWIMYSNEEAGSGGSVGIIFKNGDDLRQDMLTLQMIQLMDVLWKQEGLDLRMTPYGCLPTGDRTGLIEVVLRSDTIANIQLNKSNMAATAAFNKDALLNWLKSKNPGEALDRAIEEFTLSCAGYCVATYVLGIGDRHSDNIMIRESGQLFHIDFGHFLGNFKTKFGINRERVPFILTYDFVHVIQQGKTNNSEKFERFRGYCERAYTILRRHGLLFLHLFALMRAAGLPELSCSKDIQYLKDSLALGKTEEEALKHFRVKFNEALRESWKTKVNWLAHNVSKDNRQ", "test": "Inhibition of human PI3Kdelta by ADP-Glo assay", "format": "toxicity"}, "MCF7 [19]": {"tested_on": "MCF7", "test": "Synergistic antiproliferative activity against human MCF7 cells assessed as combination index at 200 uM in presence of 0.1 uM doxorubicin by MTT assay", "format": "functional"}, "[20]": {"test": "AUC (0 to infinity) in Sprague-Dawley rat at 5 mg/kg, po", "format": "ADME, organism-based", "set-up": "time infinity, dose 5 mg/kg, route po", "conditions": "in vivo"}, "MDA-MB-231 [21]": {"tested_on": "MDA-MB-231", "test": "Synergistic antiproliferative activity against human MDA-MB-231 cells assessed as combination index at 6.25 uM in presence of 0.1 uM doxorubicin by MTT assay", "format": "functional"}, "[22]": {"test": "Toxicity in BALB/c nude mouse xenografted with human HL-60 cells assessed as serum monocytes content at 100 mg/kg, po qd for 16 days (reference value: 0.5X10^9/L)", "format": "organism-based", "conditions": "in vivo, 384 h, time 16 day"}, "HepG2 [23]": {"tested_on": "HepG2", "test": "Synergistic antiproliferative activity against Doxorubicin-resistant human HepG2 cells assessed as combination index at 0.5 uM in presence of 0.1 uM doxorubicin by MTT assay", "format": "functional"}, "HL-60 [24]": {"tested_on": "HL-60", "test": "Synergistic antiproliferative activity against human HL-60 cells assessed as combination index at 0.1 uM in presence of 0.1 uM doxorubicin by MTT assay", "format": "functional"}, "HCT-116 [25]": {"tested_on": "HCT-116", "test": "Antiproliferative activity against human HCT-116 cells assessed as inhibition of cell growth incubated for 48 hrs in presence of 100 nM doxorubicin by MTT assay", "format": "functional, cell-based", "conditions": "HCT-116, 48 h"}, "[26]": {"test": "Toxicity in BALB/c nude mouse xenografted with human HL-60 cells assessed as MCV level at 100 mg/kg, po qd for 16 days (reference value: 57.2 fL)", "format": "organism-based", "conditions": "in vivo, 384 h, time 16 day"}},
  "data": [
    {"smiles": "Cc1cc2ncnn2cc1Nc1ncc2c(n1)N(C1CCOCC1)CC(=O)N2C", "values": [
      {"measurement": "CI", "setting": "HL-60 [1]", "value": 0.03585},
      {"measurement": "CI", "setting": "HepG2 [2]", "value": 0.06059},
      {"measurement": "CI", "setting": "MDA-MB-231 [3]", "value": 0.3259},
      {"measurement": "Activity", "setting": "HCT-116 [4]", "value": 0.015, "unit": "%"},
      {"measurement": "CI", "setting": "HepG2 [5]", "value": 0.04474},
      {"measurement": "CI", "setting": "HepG2 [6]", "value": 0.07268},
      {"measurement": "IC50", "setting": "[7]", "value": 281, "unit": "nM"},
      {"measurement": "Activity", "setting": "[8]", "value": "Non-Toxic"},
      {"measurement": "CI", "setting": "MCF7 [9]", "value": 0.2764},
      {"measurement": "CI", "setting": "MCF7 [10]", "value": 0.1215},
      {"measurement": "Activity", "setting": "[11]", "value": "750 10^9/L"},
      {"measurement": "CI", "setting": "HL-60 [12]", "value": 0.551},
      {"measurement": "CI", "setting": "MCF7 [13]", "value": 0.05143},
      {"measurement": "CI", "setting": "HCT-116 [14]", "value": 0.74},
      {"measurement": "Activity", "setting": "[15]", "value": "0.49 10^9/L"},
      {"measurement": "CI", "setting": "HepG2 [16]", "value": 0.011},
      {"measurement": "logP", "setting": "[17]", "value": 1.28},
      {"measurement": "IC50", "setting": "[18]", "value": 758, "unit": "nM"},
      {"measurement": "CI", "setting": "MCF7 [19]", "value": 0.2697},
      {"measurement": "AUC(0-inf)", "setting": "[20]", "value": 3600, "unit": "ng·h/mL"},
      {"measurement": "CI", "setting": "MDA-MB-231 [21]", "value": 0.3693},
      {"measurement": "Activity", "setting": "[22]", "value": "0.51 10^9/L"},
      {"measurement": "CI", "setting": "HepG2 [23]", "value": 0.01657},
      {"measurement": "CI", "setting": "HL-60 [24]", "value": 0.00121},
      {"measurement": "IC50", "setting": "HCT-116 [25]", "value": 17100, "unit": "nM"},
      {"measurement": "Activity", "setting": "[26]", "value": 56.1, "unit": "fL"}
    ]}
  ]
}
